# Data published in patent publication US20210230170A1, “KRAS G12C INHIBITORS” (Mirati Therapeutics, Inc., priority 2018, published 2021).
# Biological target: T1, KRas G12C (Homo sapiens, UniProt P01116, G12C)
# T1 construct: NCI-H358 cells (ATCC CRL-5807) express KRas G12C; host or cells: NCI-H358
# Assay: Inhibition of KRas G12C in NCI-H358 cells measured by phosphorylated ERK (Phospho-ERK)
# Format: cell-based
# Settings: pERK(Thr202/Tyr204) signal normalized with GAPDH, percent of DMSO control, 3 hours compound treatment
# Protocol: The cellular inhibition of KRAs G12C by exemplary compounds of the present invention was determined by measuring the amount of a downstream marker of KRas activity, phosphorylated ERK (“Phospho-ERK”).
# NCI-H358 cells (ATCC CRL-5807) express KRas G12C and were grown in RPMI medium supplemented with 10% fetal bovine serum, penicillin/streptomycin and 10 mM HEPES. Cells were plated in poly-D-Lysine coated 96-well plates at a concentration of 50,000 cells/well and allowed to attach for 8-12 hours. Diluted compounds were then added at a final concentration of 0.5% DMSO. After 3 hours, the medium was removed, 150 μL of 4% formaldehyde was added and the plates were incubated for 20 minutes. The plates were washed with PBS, and permeabilized using 150 μL of ice cold 100% methanol for 10 minutes. Non-specific antibody binding to the plates was blocked using 100 μL Licor Blocking Buffer (Li-Cor Biotechnology, Lincoln Nebr.) for 1 hour at room temperature. Positive control samples and samples lacking cells were parallel processed with test samples as standards.
# The amount Phospho-ERK was determined using an antibody specific for the phosphorylated form of ERK and compared to the amount of GAPDH. Primary antibodies used for detection were added as follows: Phospho-ERK (Cell Signaling cs9101) diluted 1:500 and GAPDH (Millipore MAB374) diluted 1:5000 in Licor block+0.05% Tween 20. The plates were incubated for 2 hours at room temperature. The plates were washed with PBS+0.05% Tween 20.
# Secondary antibodies used to visualize primary antibodies were added as follows: Anti-rabbit-680 diluted 1:1000 and Anti-mouse-800 diluted 1:1000 in Licor Block+0.05% Tween 20 and incubated for 1 hour at room temperature. The plates were washed with PBS+0.05% Tween 20. A 100 μL aliquot of PBS was added to each well and the plates were read on a LICOR AERIUS plate reader.
# The pERK(Thr202/Tyr204) signal was normalized with the GAPDH signal and percent of DMSO control values were calculated. IC50 values were generated using a 4 parameter fit of the dose response curve. Key: “A”≤500 nM; “B”>500 nM and ND=not determined.
# T1 sequence (P01116 1-188 isoform P01116-2 G12C): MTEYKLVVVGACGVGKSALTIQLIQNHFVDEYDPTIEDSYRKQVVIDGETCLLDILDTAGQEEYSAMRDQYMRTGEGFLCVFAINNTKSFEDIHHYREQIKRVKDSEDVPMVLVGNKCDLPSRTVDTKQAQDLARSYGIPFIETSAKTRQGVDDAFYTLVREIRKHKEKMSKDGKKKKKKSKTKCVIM
row,Structure (SMILES),IC50
1,"C=CC(=O)N1CCN(c2nc(OC[C@@H]3CCCN3C)nc3c2CCCN(c2cccc4ccccc24)C3)C[C@@H]1CC#N [Example 6, 2-[(2S)-4-[2-[[(2S)-1-methylpyrrolidin-2-yl]methoxy]-8-(1-naphthyl)-5,6,7,9-tetrahydropyrimido[4,5-c]azepin-4-yl]-1-prop-2-enoyl-piperazin-2-yl]acetonitrile]",> 500 nM
2,"C=CC(=O)N1CCN(c2nc(OC[C@@H]3CCCN3C)nc3c2CCCN(c2cccc4cccc(C(F)(F)F)c24)C3)C[C@@H]1CC#N [Example 21, 2-((S)-1-acryloyl-4-(2-(((S)-1-methylpyrrolidin-2-yl)methoxy)-8-(8-(trifluoromethyl)naphthalen-1-yl)-6,7,8,9-tetrahydro-5H-pyrimido[4,5-c]azepin-4-yl)piperazin-2-yl)acetonitrile]",> 500 nM
3,"C=CC(=O)N1CCN(c2nc(OC[C@@H]3CCCN3C)nc3c2CCCN(c2ncccc2C(F)(F)F)C3)C[C@@H]1CC#N [Example 15, 2-[(2S)-4-[2-[[(2S)-1-methylpyrrolidin-2-yl]methoxy]-8-[3-(trifluoromethyl)-2-pyridyl]-5,6,7,9-tetrahydropyrimido[4,5-c]azepin-4-yl]-1-prop-2-enoyl-piperazin-2-yl]acetonitrile]",> 500 nM
4,"C=CC(=O)N1CCN(c2nc(OC[C@@H]3CCCN3C)nc3c2CCCN(c2cccc4cccc(Cl)c24)C3)C[C@@H]1CC#N [Example 7, 2-((S)-1-acryloyl-4-(8-(8-chloronaphthalen-1-yl)-2-(((S)-1-methylpyrrolidin-2-yl)methoxy)-6,7,8,9-tetrahydro-5H-pyrimido[4,5-c]azepin-4-yl)piperazin-2-yl)acetonitrile]",> 500 nM
5,"C=CC(=O)N1CCN(c2nc(OC[C@@H]3CCCN3C)nc3c2CCCN(c2c(C)ccc4[nH]ncc24)C3)C[C@@H]1CC#N [Example 19, 2-[(2S)-4-[8-(5-methyl-1H-indazol-4-yl)-2-[[(2S)-1-methylpyrrolidin-2-yl]methoxy]-5,6,7,9-tetrahydropyrimido[4,5-c]azepin-4-yl]-1-prop-2-enoyl-piperazin-2-yl]acetonitrile]",> 500 nM
6,"C=C(F)C(=O)N1CCN(c2ncnc3c2CCCN(c2cccc4cccc(C)c24)C3)C[C@@H]1CC#N [Example 23, 2-[(2S)-1-(2-fluoroprop-2-enoyl)-4-[8-(8-methyl-1-naphthyl)-5,6,7,9-tetrahydropyrimido[4,5-c]azepin-4-yl]piperazin-2-yl]acetonitrile]",> 500 nM
7,"C=C(F)C(=O)N1CCN(c2nc(OC[C@@H]3CCCN3C)nc3c2CCCN(c2c(C)ccc4[nH]ncc24)C3)C[C@@H]1CC#N [Example 20, 2-[(2S)-1-(2-fluoroprop-2-enoyl)-4-[8-(5-methyl-1H-indazol-4-yl)-2-[[(2S)-1-methylpyrrolidin-2-yl]methoxy]-5,6,7,9-tetrahydropyrimido[4,5-c]azepin-4-yl]piperazin-2-yl]acetonitrile]",> 500 nM
8,"C=CC(=O)N1CCN(c2ncnc3c2CCCN(c2cccc4cccc(C)c24)C3)C[C@@H]1CC#N [Example 25, 2-[(2S)-4-[8-(8-methyl-1-naphthyl)-5,6,7,9-tetrahydropyrimido[4,5-c]azepin-4-yl]-1-prop-2-enoyl-piperazin-2-yl]acetonitrile]",> 500 nM
9,"C=C(F)C(=O)N1CCN(c2nc(OC[C@@H]3CCCN3C)nc3c2CCCN(c2cccc4ccccc24)C3)C[C@@H]1CC#N [Example 22, 2-((S)-1-(2-fluoroacryloyl)-4-(2-(((S)-1-methylpyrrolidin-2-yl)methoxy)-8-(naphthalen-1-yl)-6,7,8,9-tetrahydro-5H-pyrimido[4,5-c]azepin-4-yl)piperazin-2-yl)acetonitrile]",> 500 nM
10,"C=CC(=O)N1CCN(c2nc(OC[C@@H]3CCCN3C)nc3c2CCCN(c2cccc(C(C)C)c2)C3)C[C@@H]1CC#N [Example 8, 2-[(2S)-4-[8-(3-isopropylphenyl)-2-[[(2S)-1-methylpyrrolidin-2-yl]methoxy]-5,6,7,9-tetrahydropyrimido[4,5-c]azepin-4-yl]-1-prop-2-enoyl-piperazin-2-yl]acetonitrile]",> 500 nM

# Results, then the compound that gave them:
row,IC50,Structure (SMILES)
1,≤ 500 nM,"C=CC(=O)N1CCN(c2nc(OC[C@@H]3CCCN3C)nc3c2CCCN(c2c(F)ccc4ccccc24)C3)C[C@@H]1CC#N [Example 10, 2-((S)-1-acryloyl-4-(8-(2-fluoronaphthalen-1-yl)-2-(((S)-1-methylpyrrolidin-2-yl)methoxy)-6,7,8,9-tetrahydro-5H-pyrimido[4,5-c]azepin-4-yl)piperazin-2-yl)acetonitrile]"
2,≤ 500 nM,"C=CC(=O)N1CCN(c2nc(OC[C@@H]3CCCN3C)nc3c2CCCN(c2cccc(F)c2C(F)(F)F)C3)C[C@@H]1CC#N [Example 14, 2-[(2S)-4-[8-[3-fluoro-2-(trifluoromethyl)phenyl]-2-[[(2S)-1-methylpyrrolidin-2-yl]methoxy]-5,6,7,9-tetrahydropyrimido[4,5-c]azepin-4-yl]-1-prop-2-enoyl-piperazin-2-yl]acetonitrile]"
3,≤ 500 nM,"C=CC(=O)N1CCN(c2nc(OC[C@@H]3CCCN3C)nc3c2CCCN(c2nccc4cccc(C)c24)C3)C[C@@H]1CC#N [Example 17, 2-[(2S)-4-[8-(8-methyl-1-isoquinolyl)-2-[[(2S)-1-methylpyrrolidin-2-yl]methoxy]-5,6,7,9-tetrahydropyrimido[4,5-c]azepin-4-yl]-1-prop-2-enoyl-piperazin-2-yl]acetonitrile]"
4,≤ 500 nM,"C=CC(=O)N1CCN(c2nc(OC[C@@H]3CCCN3C)nc3c2CCCN(c2cccc4c(F)cccc24)C3)C[C@@H]1CC#N [Example 12, 2-((S)-1-acryloyl-4-(8-(5-fluoronaphthalen-1-yl)-2-(((S)-1-methylpyrrolidin-2-yl)methoxy)-6,7,8,9-tetrahydro-5H-pyrimido[4,5-c]azepin-4-yl)piperazin-2-yl)acetonitrile]"
5,≤ 500 nM,"C=CC(=O)N1CCN(c2nc(OC[C@@H]3CCCN3C)nc3c2CCCN(c2cccc4cccc(C)c24)C3)C[C@@H]1CC#N [Example 1, 2-[(2S)-4-[8-(8-methyl-1-naphthyl)-2-[[(2S)-1-Methylpyrrolidin-2-yl]methoxy]-5,6,7,9-tetrahydropyrimido[4,5-c]azepin-4-yl]-1-prop-2-enoyl-piperazin-2-yl]acetonitrile]"
6,≤ 500 nM,"C=CC(=O)N1CCN(c2nc(OC[C@@H]3CCCN3C)nc3c2CCCN(c2cccc(F)c2C)C3)C[C@@H]1CC#N [Example 9, 2-((S)-1-acryloyl-4-(8-(3-fluoro-2-methylphenyl)-2-(((S)-1-methylpyrrolidin-2-yl)methoxy)-6,7,8,9-tetrahydro-5H-pyrimido[4,5-c]azepin-4-yl)piperazin-2-yl)acetonitrile]"
7,≤ 500 nM,"C=CC(=O)N1CCN(c2nc(OC[C@@H]3CCCN3C)nc3c2CCCN(c2c(C)ccc4ccccc24)C3)C[C@@H]1CC#N [Example 3, 2-[(2S)-4-[8-(2-methyl-1-naphthyl)-2-[[(2S)-1-methylpyrrolidin-2-yl]methoxy]-5,6,7,9-tetrahydropyrimido[4,5-c]azepin-4-yl]-1-prop-2-enoyl-piperazin-2-yl]acetonitrile]"
8,≤ 500 nM,"C=CC(=O)N1CCN(c2nc(OC[C@@H]3CCCN3C)nc3c2CCCN(c2c(C)cccc2F)C3)C[C@@H]1CC#N [Example 18, 2-[(2S)-4-[8-(2-fluoro-6-methyl-phenyl)-2-[[(2S)-1-methylpyrrolidin-2-yl]methoxy]-5,6,7,9-tetrahydropyrimido[4,5-c]azepin-4-yl]-1-prop-2-enoyl-piperazin-2-yl]acetonitrile]"
